Tests used:
USP7 Ubl345 = experiment: Fluorescence polarization, Ubl345; format: binding, human; details: FITC peptide 40 nM, protein up to 200 μM
Method: (§1) USP7 proteins were titrated (0 to 200 μM) with N-terminally labeled FITC-ICP0, FITC-GMPS or FITC-UHRF1 peptides (synthesized by CanPeptide, 40 nM) in 0.01% Triton X-100, 150 mM NaCl, 20 mM Tris pH 7.5. Polarized emission of FITC-ICP0 or FITC-GMPS or FITC-UHRF1 was measured with a Synergy H4 Hybrid Multi-Mode Microplate Reader (BioTek) with the excitation wavelength set at 485 nm and the emission wavelength set at 528 nm. The competition binding assay was performed with a fixed USP7-CTD concentration (8 μM), 40nM FITC-UHRF1 and increasing concentrations of unlabeled ICP0 (0 to 2500 μM). The polarization data were plotted and analyzed using GraphPad Prism version 5.0 to calculate dissociation (KD) and inhibition (Ki) constants. These assays were repeated at least 3 times and used to calculate the average and standard deviation.

USP7-NTD = experiment: Fluorescence polarization, USP7-NTD; format: binding, human; details: FITC peptide 40 nM, protein up to 200 μM
Method: as §1

USP7-CTD = target: T1, USP7-CTD (Homo sapiens, UniProt Q93009); experiment: Competition binding assay (fluorescence polarization), FITC-UHRF1 displacement; details: USP7-CTD 8 μM, FITC-UHRF1 40 nM, unlabeled ICP0 0 to 2500 μM
T1 construct: USP7-CTD (535–1102); His tag (inferred from nickel-NTA purification; vector p15TV-L); made in house; host or cells: E. coli BL21(DE3)mgk
Method: Given the importance of the KxxxK motif in ICP0 and GMPS for USP7-CTD binding, we examined the UHRF1 sequence for such a motif and identified ^642[…]^649 (Fig 4A). […] The saturation curve is shown in S3 Fig. A competitive binding assay was used to establish whether the UHRF1 and ICP0 peptides were competing for the same binding site on Ubl2. This assay was performed by measuring the fluorescence polarization with increasing amounts of unlabeled ICP0 while keeping both USP7-CTD and FITC-UHRF1 constant. […] This competition was confirmed by the competition binding experiment shown in S3 Fig.
as §1, with “These assays were repeated at least 3 times and used to calculate the average and standard deviation.” left out

293T cells = experiment: ICP0 input levels with and without USP7, Western blot, 293T cells; format: cell-based; details: input levels of ICP0 with and without USP7, Fig 5A
Method: (§2) 293T cells were grown in Dulbecco’s modified Eagle’s medium (DMEM) (Gibco) with 10% fetal calf serum. 293T cells at 70% confluence in a 10-cm-diameter dish were transfected with 10 μg pCANmycUSP7 expressing WT USP7 or D762R/D764R (MRGR) USP7 or with pcDNA3.1 (negative control), in each case using 20 μl PolyJet (SignaGen Laboratories) transfection reagent. Cells were transferred to a 15-cm-diameter dish 24 h post-transfection and harvested 48 h post-transfection. For experiments on USP7-ICP0 interactions, 293T cells were co-transfected with 1 μg pCANmycUSP7 expressing WT or D762R/D764R (MRGR) USP7 and either 1 μg pCI-110 ICP0 or 1 μg pcDNA3.1. For controls lacking USP7, 1 μg pCI-110 ICP0 was co-transfected with 1 μg pcDNA3.1. In each case 4 μl PolyJet (SignaGen Laboratories) transfection reagent was used.
Protein samples were subjected to SDS-PAGE and transferred to nitrocellulose. […]
293T cells transfected as described above were washed in phosphate-buffered saline (PBS) and lysed on ice for 45 min in a 4x volume of RIPA buffer (50 mM Tris-HCl [pH 8], 150 mM NaCl, 0.1% sodium deoxycholate, 0.5% NP-40) with complete protease inhibitors (Sigma P8340), followed by centrifugation. […] Immunoprecipitated proteins were separated by SDS-PAGE and analyzed by Western blotting, as described above.

[1] = test system: myc-tagged D762R/D764R (MRGR) USP7; experiment: Co-immunoprecipitation with myc-tagged D762R/D764R (MRGR) USP7 from 293T cells; format: cell-based, human; details: anti-myc IP, Western blot, Fig 5
Method: as §2
Protein samples were subjected to SDS-PAGE and transferred to nitrocellulose. Membranes were blocked in 5% skim milk in Tris-buffered saline with 1% Tween (TBS-T) and then incubated with antibodies against ICP0 (H1A027 from Virusys Corporation; 1:5000 dilution), myc (sc-40 from Santa Cruz Biotechnology; 1:5000 dilution), NP95/UHRF1 (A301-470A from Bethyl Laboratories; 1:1000 dilution), GMPS (rabbit serum raised against full-length GMPS [17]; 1:5000 dilution) and actin (MA5-15739 from Pierce; 1:20,000 dilution). After washing, blots were probed with goat anti-mouse or goat anti-rabbit peroxidase (Santa Cruz Biotechnology; 1:5000 dilution) and developed using chemiluminescence reagents (Santa Cruz biotechnology).
293T cells transfected as described above were washed in phosphate-buffered saline (PBS) and lysed on ice for 45 min in a 4x volume of RIPA buffer (50 mM Tris-HCl [pH 8], 150 mM NaCl, 0.1% sodium deoxycholate, 0.5% NP-40) with complete protease inhibitors (Sigma P8340), followed by centrifugation. 1 mg of each clarified lysate was incubated with 1 μg of anti-myc antibody for 1h, followed by incubation with 30 μl of A/G PLUS agarose resin (Santa Cruz Biotechnology) for 2 h at 4°C with end-over-end rotation. The resin was harvested by centrifugation, washed in RIPA buffer, and then boiled in SDS loading buffer. Immunoprecipitated proteins were separated by SDS-PAGE and analyzed by Western blotting, as described above.

T1 sequence (Q93009 535-1102): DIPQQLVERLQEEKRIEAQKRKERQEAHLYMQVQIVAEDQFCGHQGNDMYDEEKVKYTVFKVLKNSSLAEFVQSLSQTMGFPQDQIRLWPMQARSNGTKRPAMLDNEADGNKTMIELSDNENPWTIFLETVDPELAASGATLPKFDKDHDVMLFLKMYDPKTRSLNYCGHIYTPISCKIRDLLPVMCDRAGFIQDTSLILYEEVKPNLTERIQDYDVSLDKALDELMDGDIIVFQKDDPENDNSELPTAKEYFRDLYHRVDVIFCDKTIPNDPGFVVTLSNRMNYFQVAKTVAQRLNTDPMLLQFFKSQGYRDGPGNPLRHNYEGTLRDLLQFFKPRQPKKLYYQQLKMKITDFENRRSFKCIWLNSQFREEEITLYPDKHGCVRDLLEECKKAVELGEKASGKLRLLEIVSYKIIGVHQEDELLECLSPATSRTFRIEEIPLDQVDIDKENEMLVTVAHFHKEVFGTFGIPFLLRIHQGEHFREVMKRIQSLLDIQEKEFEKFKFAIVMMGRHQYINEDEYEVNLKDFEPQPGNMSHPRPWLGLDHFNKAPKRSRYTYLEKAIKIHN

Compound | polarization with Ubl345 (USP7 Ubl345) | polarization with USP7-NTD (USP7-NTD) | competition with UHRF1 peptide for binding to Ubl2 (USP7-CTD) | effect of WT USP7 and D762R/D764R mutant on ICP0 level (293T cells) | recovery with D762R/D764R USP7 (co-IP), in words [1]
C[C@H](NC(=O)[C@H](CS)NC(=O)[C@H](CCCCN)NC(=O)[C@H](CCCNC(=N)N)NC(=O)[C@@H]1CCCN1C(=O)CNC(=O)[C@H](CCCNC(=N)N)NC(=O)[C@@H]1CCCN1)C(=O)N[C@@H](CCCNC(=N)N)C(=O)N[C@@H](CCCCN)C(=O)N[C@H](C(=O)N[C@@H](CCCNC(=N)N)C(=O)N[C@@H](Cc1c[nH]cn1)C(=O)O)[C@@H](C)O [ICP0 peptide] | did not show any polarization | did not show any polarization | readily competes with the UHRF1 peptide for binding to Ubl2 |  | 
ICP0: Herpes simplex virus-1 immediate-early protein ICP0, expressed in 293T cells |  |  |  | stabilizing effect on ICP0 | decreased (2-fold in multiple experiments) but not abrogated
